For this test, the system named is M. tuberculosis H37Rv growth inhibition. Description: Confirmatory growth inhibition assay against Mycobacterium tuberculosis H37Rv, potency (AID 1949).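 Further: bacteria grown 7 days with compound before Alamar blue readout.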

In brackets after ≈: the same amount, converted by molar mass. Inconclusive results are not listed. Activity calls are given as the source filed them. How the calls were made is not given here. Bounds are passed on as bounds.

For `CCOC(=O)C(C)Oc1ccc2c(-c3ccc(OC)cc3)cc(=O)oc2c1` (configuration not stated), the IC50 is 1.35 µg/mL (≈ 3.66 µM).
Turning to `N#CC1=C(SCC(=O)Nc2ccccc2C(=O)c2ccccc2)NC(=O)CC1c1ccccc1F` (configuration not stated), the IC50 was 3.1 µg/mL (≈ 6.38 µM).
As for `O=C(Oc1ccccc1)c1cccc(COC(=O)c2cnccn2)c1`, the IC50 is 28 µg/mL (≈ 83.8 µM).
On to `COC(=O)CSc1nnc(NC(=O)c2ccc(C(C)(C)C)cc2)s1`, for which the concentration for half-maximal inhibition (IC50) is below 0.1 µg/mL.
The same measure for `CCC(=O)NC(=S)Nc1ccc(N2CCCCC2)cc1`: 3.52 µg/mL (≈ 12.1 µM); for `CCC(C)c1ccc(O)c(NC(=S)NC(=O)c2cncc(Br)c2)c1` (configuration not stated): below 0.1 µg/mL; for `O=C(CSc1n[nH]c(-c2ccc(Cl)cc2)n1)Nc1ccc(F)c(Cl)c1`: 39 µg/mL (≈ 98.2 µM).
With `Cc1ccc2nc(/C(C#N)=C\c3c[nH]c4ccc(Br)cc34)[nH]c2c1` the figure was 0.62 µg/mL (≈ 1.64 µM); with `COc1cccc(N2CCN(C(=O)Nc3ccc(Cl)c(Cl)c3)CC2)c1`, 9.41 µg/mL (≈ 24.7 µM); with `Cc1ccnc(N2C(=O)c3cccc4c([N+](=O)[O-])ccc(c34)C2=O)c1`, 1.4 µg/mL (≈ 4.2 µM).
As for `O=[N+]([O-])/C=C/c1ccccc1OCc1cccc(F)c1`, the IC50 is 6.26 µg/mL (≈ 22.9 µM).
Take `O=C(Nc1cccc(Br)c1)c1ccc(-c2ccc(Cl)cc2)o1`: the IC50 was 1.39 µg/mL (≈ 3.69 µM).
Take `CC1(C)CC(=O)C2=C(C1)NC1=C(C(=O)c3ccccc31)C2c1ccc(C(F)(F)F)cc1` (configuration not stated): the IC50 was 30.3 µg/mL (≈ 71.7 µM).
For `Cc1cccc(C)c1OCC(=O)N/N=C/c1ccc(O)c([N+](=O)[O-])c1`, the IC50 is 0.36 µg/mL (≈ 1.05 µM).
The same measure for `Cc1ccc2nc(SCc3ccc4ccccc4c3)[nH]c2c1`: 11 µg/mL (≈ 36 µM).
With `Cc1ccc(-c2csc(-c3ccc(O)cc3)n2)cc1`, the IC50 is 2.69 µg/mL (≈ 10.1 µM).
Turning to `O=C(Oc1cccc2cccnc12)c1ccco1`, the IC50 is 0.75 µg/mL (≈ 3.14 µM).
The same measure for `C=CCN(CC=C)C(=S)NC(=O)c1ccc(F)cc1`: 0.81 µg/mL (≈ 2.91 µM); for `O=C(CCN1C(=O)C2C3C=CC(C4CC34)C2C1=O)Oc1cccc2cccnc12` (configuration not stated): 1.46 µg/mL (≈ 3.76 µM); for `O=C(Nc1ncnc2sc3c(c12)CCCC3)c1ccc(F)cc1`: 0.52 µg/mL (≈ 1.59 µM).
On to `O=C(CCSc1ccc(Cl)cc1)Nc1ccc(F)c(Cl)c1`, for which the IC50 is 4.06 µg/mL (≈ 11.8 µM).
For `CCOC(=O)C1=C(c2ccc(C)cc2)C(=O)c2ccccc2C1=O`, the IC50 is 3.03 µg/mL (≈ 9.46 µM).
The same measure for `CCOC(=O)Cn1cc(C#N)c2cccc(CC)c21`: 0.87 µg/mL (≈ 3.39 µM).
With `Cc1cc(C)c2nc(NC3=NC(c4ccccc4)CC(=O)N3)nc(C)c2c1` (configuration not stated) the figure was > 50 µg/mL (inactive); with `O=C1C=C(c2ccccc2)C(=O)c2ccccc21`, 2.68 µg/mL (≈ 11.4 µM).
For the compound `COC(=O)c1ccc(COC(=O)c2ccc(Cl)cc2)cc1`, the IC50 is > 50 µg/mL (inactive).
The same measure for `COc1ccc(-c2nn(-c3ccccc3)cc2CNCc2ccccc2)cc1`: 6.04 µg/mL (≈ 16.3 µM).
As for `CCOC(=O)c1c(NC(=O)CN2CCN(C)CC2)sc2c1CCC(C)C2` (configuration not stated), the IC50 is 5.8 µg/mL (≈ 15.3 µM).
For `CC(C)OC(=O)CSc1nnc(-c2ccc(N(C)C)cc2)o1`, the IC50 is below 0.1 µg/mL.
With `Cc1ccc(OCCN2CCN(c3nc(NCc4ccccc4)c4ccccc4n3)CC2)cc1`, the concentration for half-maximal inhibition (IC50) was 1.42 µg/mL (≈ 3.13 µM).
With `O=C(Nc1cc(Cl)ccc1O)c1cc(Cl)ccc1Cl` the figure was 12.2 µg/mL (≈ 38.5 µM); with `Cc1cc(-n2c(C)cc(/C=C3\NC(=O)NC3=O)c2C)ccc1Br`, 8.38 µg/mL (≈ 22.4 µM).
The same measure for `COc1ccc(-c2oc3ncn(CCCn4ccnc4)c(=N)c3c2-c2ccc(OC)cc2)cc1`: 3.79 µg/mL (≈ 8.32 µM).
With `CCOC(=O)COc1ccc(S(=O)(=O)Nc2cc(C)cc(C)c2)cc1`, the IC50 was 4.03 µg/mL (≈ 11.1 µM).
With `CC(C)COCc1ccc(O)c2ncccc12`, the IC50 is > 50 µg/mL (inactive).
With `O=C1c2cccc3cc([N+](=O)[O-])cc(c23)C(=O)N1CCO` the figure was > 50 µg/mL (inactive); with `CCc1ccc(C2C3=C(CC(C)(C)CC3=O)NC3=C2C(=O)c2ccccc23)cc1` (configuration not stated), 4.44 µg/mL (≈ 11.6 µM); with `Cc1ccc2nc(-c3ccncc3)cc(C(=O)Nc3ccc(C(=O)N4CCCC4)cc3)c2c1`, 8.89 µg/mL (≈ 20.4 µM).
Regarding `Cc1ccc(SCC(=O)Nc2ccc(C)c(C)c2)cc1`, the IC50 is 3.4 µg/mL (≈ 11.9 µM).
With `CC1CCN(c2nc(-c3cccnc3)nc3ccccc23)CC1` the figure was > 50 µg/mL (inactive); with `Cc1sc2ncn(C(C)C(=O)OC3CCCCC3)c(=O)c2c1C` (configuration not stated), 1.11 µg/mL (≈ 3.32 µM); with `CCC(C(=O)O/N=C(\N)Cc1cccc2ccccc12)c1ccccc1` (configuration not stated), 10.1 µg/mL (≈ 29.2 µM).
`CN(c1ccccc1)c1ccc([N+](=O)[O-])c2nonc12`: the 50% inhibitory concentration (IC50) was below 0.1 µg/mL.
Turning to `O=C(CSc1nnc(SCc2cccc3ccccc23)s1)Nc1ccccc1F`, the half-maximal inhibitory concentration (IC50) was 1.45 µg/mL (≈ 3.28 µM).
Consider `Cc1cc(C(=O)NCC23CC4CC(CC(C4)C2)C3)ccc1[N+](=O)[O-]`, for which the concentration for half-maximal inhibition (IC50) was 0.42 µg/mL (≈ 1.28 µM).
In the case of `COC(=O)COc1ccc(NC(=O)c2ccccc2C)cc1`, the IC50 was below 0.1 µg/mL.
With `COC(=O)C1=C(C)N(c2cc(Cl)cc(Cl)c2)C(=O)C1` the figure was 6.04 µg/mL (≈ 20.1 µM); with `COC(=O)COc1ccc2c(-c3cccc([N+](=O)[O-])c3)cc(=O)oc2c1`, 0.34 µg/mL (≈ 0.957 µM).
`O=[N+]([O-])/C=C/c1ccc(-c2ccc(F)cc2)o1`: the IC50 is 10.1 µg/mL (≈ 43.3 µM).
For `CC(=O)c1ccc(S(=O)(=O)c2ccc(C)cc2)c([N+](=O)[O-])c1`, the half-inhibitory concentration (IC50) was 2.94 µg/mL (≈ 9.21 µM).
`Cc1ccc(-c2nn(-c3cc(N4CCN(C)CC4)ccc3[N+](=O)[O-])c(=O)c3ccccc23)cc1`: the IC50 was 8.15 µg/mL (≈ 17.9 µM).
The same measure for `O=C(OCc1nnc(-c2ccccc2)o1)c1cc(-c2cccs2)nc2ccccc12`: 3.03 µg/mL (≈ 7.33 µM).
With `CN1CCN(c2ccc(C(=O)Nc3cccc(Cl)c3)cc2[N+](=O)[O-])CC1` the figure was 4.41 µg/mL (≈ 11.8 µM); with `Cc1cc(N)cc(-c2nc3ccccc3o2)c1O`, 16.4 µg/mL (≈ 68.4 µM).
Regarding `Cc1cccc(OCC(O)CN2CCN(CCN3C(=O)c4cccc5cccc(c45)C3=O)CC2)c1C` (configuration not stated), the IC50 was 2.53 µg/mL (≈ 5.19 µM).
The same measure for `CN(C)C(=S)Nc1nc2ccccc2s1`: below 0.1 µg/mL.
The same measure for `O=C(Nc1ccc(Cl)cc1C(F)(F)F)c1ccc([N+](=O)[O-])o1`: 2.42 µg/mL (≈ 7.23 µM); for `O=C(NC(=S)N1CCc2ccccc21)c1ccco1`: 5.64 µg/mL (≈ 20.7 µM); for `Cc1ccc(C(=O)N2CCN(c3ccc(NC(=O)COc4ccccc4Cl)cc3)CC2)cc1`: 6.08 µg/mL (≈ 13.1 µM).
With `O=[N+]([O-])c1ccc(NC(=S)NCc2ccc(Cl)c(Cl)c2)cc1` the figure was 1.84 µg/mL (≈ 5.17 µM); with `CC1CCCCC1NC(=O)CSc1nc2ccccc2c(=O)[nH]1` (configuration not stated), 18.4 µg/mL (≈ 55.5 µM).
Take `CCOC(=O)COc1ccc2oc(C)c(C(=O)OC)c2c1`: the IC50 is 6.25 µg/mL (≈ 21.4 µM).
With `COc1ccc(C23CC4CC(CC(C4)C2)C3)cc1C(=O)NCCN(C)C`, the half-maximal inhibitory concentration (IC50) is 10.8 µg/mL (≈ 30.3 µM).
The same measure for `CCc1ccc(OCC(=O)NNC(=O)c2cnccn2)c(Br)c1`: 1.12 µg/mL (≈ 2.95 µM); for `O=C(NCCC12CC3CC(CC(C3)C1)C2)c1ccc(Br)cc1`: 0.28 µg/mL (≈ 0.773 µM); for `CC(C)(C)c1ccc(C(=O)NC(=S)Nc2ccc(F)cc2)cc1Br`: 2.51 µg/mL (≈ 6.13 µM).
With `COc1ccc(C2=CC(=O)c3ccccc3C2=O)cc1`, the IC50 was 3.53 µg/mL (≈ 13.4 µM).
In the case of `Fc1ccc(Nc2nc(-c3ccccn3)cs2)cc1`, the 50% inhibitory concentration (IC50) was 0.28 µg/mL (≈ 1.03 µM).
Regarding `O=[N+]([O-])c1ccc(NC(=S)NCc2ccc(F)cc2)cc1`, the IC50 is 4.86 µg/mL (≈ 15.9 µM).
The same measure for `O=S(=O)(Nc1cc(Sc2ccccc2)c(O)c2ccccc12)c1cccs1`: 25.7 µg/mL (≈ 62.2 µM); for `CCOC(=O)c1ccccc1OC(=O)c1c(F)c(F)c(F)c(F)c1F`: 9.77 µg/mL (≈ 27.1 µM).
With `Oc1ccc(-c2nc3cc4ccccc4cc3nc2-c2ccccc2)cc1` the figure was 0.96 µg/mL (≈ 2.76 µM).

Usually IC50 stands for the concentration at which inhibition is half-maximal.

These data come from PubChem BioAssay AID1949 (Southern Research Institute, 2009).
